Reference: patent US20240270762A1, “PENICILLIN-BINDING PROTEIN INHIBITORS” (priority 2021, published 2024)
Converted amounts (≈) assume the structure as drawn.

Tests used:
A. baumannii PBP1a = molecular target: T1, A. baumannii PBP1a (Acinetobacter baumannii, UniProt A0ABX6CK30); assay: Bocillin-FL competition binding via gel filtration, A. baumannii PBP1a; conditions: competition binding assay using Bocillin-FL via gel filtration; read-out: A. baumannii PBP1a Potency
T1 sequence (A0ABX6CK30 1-851): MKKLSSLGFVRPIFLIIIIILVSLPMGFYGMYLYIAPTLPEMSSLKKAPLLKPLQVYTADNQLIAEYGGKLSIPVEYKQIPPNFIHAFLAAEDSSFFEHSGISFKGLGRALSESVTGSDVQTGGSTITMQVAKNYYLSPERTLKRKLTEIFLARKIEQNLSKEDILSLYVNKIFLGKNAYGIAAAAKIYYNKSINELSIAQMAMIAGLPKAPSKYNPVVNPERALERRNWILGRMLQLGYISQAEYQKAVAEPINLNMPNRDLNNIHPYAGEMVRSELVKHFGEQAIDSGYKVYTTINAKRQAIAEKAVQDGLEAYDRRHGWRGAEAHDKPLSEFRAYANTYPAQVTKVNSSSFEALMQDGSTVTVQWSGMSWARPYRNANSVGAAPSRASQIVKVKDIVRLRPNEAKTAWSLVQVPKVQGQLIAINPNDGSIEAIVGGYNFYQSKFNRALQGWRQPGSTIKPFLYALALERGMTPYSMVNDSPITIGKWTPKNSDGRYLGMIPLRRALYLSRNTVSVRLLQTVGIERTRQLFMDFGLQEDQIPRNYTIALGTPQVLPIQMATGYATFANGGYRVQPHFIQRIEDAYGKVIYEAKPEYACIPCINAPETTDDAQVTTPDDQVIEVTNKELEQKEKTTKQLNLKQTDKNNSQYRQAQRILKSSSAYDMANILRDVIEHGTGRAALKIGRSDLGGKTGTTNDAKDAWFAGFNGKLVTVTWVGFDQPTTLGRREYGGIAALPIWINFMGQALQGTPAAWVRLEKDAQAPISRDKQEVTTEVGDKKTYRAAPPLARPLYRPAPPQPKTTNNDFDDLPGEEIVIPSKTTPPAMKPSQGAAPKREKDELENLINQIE
Procedure, shortened: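 Enzyme was pre-incubated with rising inhibitor concentrations, then Bocillin-FL was added and incubated 15 minutes more. Bound probe was separated by gel filtration and fluorescence read. EC50 came from fitting fraction of PBP labelled versus inhibitor concentration to a Hill equation with ymin, ymax and n.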

[1] = test system: N. gonorrhoeae ATCC 49226; assay: Liquid broth MIC in Fastidious broth; conditions: Neisseria gonorrhoeae, ATCC49226, read-out: Minimum Inhibitory Concentration, ATCC 49226
N. gonorrhoeae FA1090 = assay: Liquid broth MIC in Fastidious broth; conditions: Neisseria gonorrhoeae, FA1090, read-out: Minimum Inhibitory Concentration, FA 1090
N. gonorrhoeae MS11 = assay: Liquid broth MIC in Fastidious broth; conditions: Neisseria gonorrhoeae, MS11, read-out: Minimum Inhibitory Concentration, MS11
N. gonorrhoeae WHO G = assay: Liquid broth MIC in Fastidious broth; conditions: Neisseria gonorrhoeae, read-out: Minimum Inhibitory Concentration, WHO G
N. gonorrhoeae WHO L = assay: Liquid broth MIC in Fastidious broth; conditions: Neisseria gonorrhoeae, read-out: Minimum Inhibitory Concentration, WHO L
N. gonorrhoeae WHO M = assay: Liquid broth MIC in Fastidious broth; conditions: Neisseria gonorrhoeae, read-out: Minimum Inhibitory Concentration, WHO M
N. gonorrhoeae WHO K = assay: Liquid broth MIC in Fastidious broth; conditions: Neisseria gonorrhoeae, read-out: Minimum Inhibitory Concentration, WHO K
N. gonorrhoeae WHO X = assay: Liquid broth MIC in Fastidious broth; conditions: Neisseria gonorrhoeae, read-out: Minimum Inhibitory Concentration, WHO X
N. gonorrhoeae CDC-0197 = assay: Liquid broth MIC in Fastidious broth; conditions: Neisseria gonorrhoeae, CDC0197, read-out: Minimum Inhibitory Concentration, CDC-0197

O=C(NCCCN1CCN(C(=O)NC(C(=O)N[C@H]2Cc3ccc(F)c(C(=O)O)c3OB2O)c2cc(F)c(O)c(O)c2Cl)C(=O)C1=O)c1cc(F)ncc1F (mixture of isomers) [Example 405]
EC50 (A. baumannii PBP1a): 10 to 50 µM

O=C(NCCCN1CCN(C(=O)N[C@@H](C(=O)N[C@H]2Cc3ccc(F)c(C(=O)O)c3OB2O)c2cc(F)c(O)c(O)c2Cl)C(=O)C1=O)c1cc(F)nc(F)c1 (racemic) [Example 401]
EC50 (A. baumannii PBP1a): < 10 µM

O=C(NCCCN1CCN(C(=O)N[C@@H](C(=O)N[C@H]2Cc3ccc(F)c(C(=O)O)c3OB2O)c2cc(F)c(O)c(O)c2Cl)C(=O)C1=O)c1ccc(O)cc1F (racemic) [Example 417]
EC50 (A. baumannii PBP1a): 10 to 50 µM

O=C(NCCCN1CCN(C(=O)N[C@@H](C(=O)N[C@H]2Cc3ccc(F)c(C(=O)O)c3OB2O)c2cc(F)c(O)c(O)c2Cl)C(=O)C1=O)c1c(F)cc(O)cc1F (racemic) [Example 420]
EC50 (A. baumannii PBP1a): 10 to 50 µM

O=C(O)c1c(F)ccc2c1OB(O)[C@@H](NC(=O)[C@@H](NC(=O)N1CCN(C3CCN(C(=O)Nc4ccc(O)cc4)CC3)C1=O)c1cc(F)c(O)c(O)c1Cl)C2 (single isomer, unassigned) [Example 467]
EC50 (A. baumannii PBP1a): < 10 µM

O=C(O)c1c(F)ccc2c1OB(O)[C@@H](NC(=O)[C@H](NC(=O)N1CCN(C3CCN(C(=O)Nc4ccc(O)cc4)CC3)C1=O)c1cc(F)c(O)c(O)c1Cl)C2 (single isomer, unassigned) [Example 468]
EC50 (A. baumannii PBP1a): < 10 µM

O=C(NCCCN1CCN(C(=O)N[C@@H](C(=O)N[C@H]2Cc3ccc(F)c(C(=O)O)c3OB2O)c2cc(F)c(O)c(O)c2Cl)C(=O)C1=O)c1ccc(O)cc1Cl (single isomer, unassigned) [Example 471]
EC50 (A. baumannii PBP1a): < 10 µM

O=C(NCCCN1CCN(C(=O)N[C@@H](C(=O)N[C@H]2Cc3ccc(F)c(C(=O)O)c3OB2O)c2cc(F)c(O)c(O)c2Cl)C(=O)C1=O)c1cc(F)c(O)cc1F (single isomer, unassigned) [Example 473]
EC50 (A. baumannii PBP1a): < 10 µM

O=C(NCCCN1CCN(C(=O)N[C@@H](C(=O)N[C@H]2Cc3ccc(F)c(C(=O)O)c3OB2O)c2cc(F)c(O)c(O)c2Cl)C(=O)C1=O)c1ccncc1 [Example 294, (R)-3-((R)-2-(2-chloro-5-fluoro-3,4-dihydroxyphenyl)-2-(4-(3-(isonicotinamido)propyl)-2,3-dioxopiperazine-1-carboxamido)acetamido)-7-fluoro-2-hydroxy-3,4-dihydro-2H-benzo[e][1,2]oxaborinine-8-carboxylic acid]
MIC [1]: 16 to 32 µg/mL (≈ 21.5 to 43 µM)
MIC (N. gonorrhoeae FA1090): 1 to 2 µg/mL (≈ 1.34 to 2.69 µM)
MIC (N. gonorrhoeae MS11): 16 to 32 µg/mL (≈ 21.5 to 43 µM)
MIC (N. gonorrhoeae WHO G): 16 to 32 µg/mL (≈ 21.5 to 43 µM)
MIC (N. gonorrhoeae WHO L): > 64 µg/mL
MIC (N. gonorrhoeae WHO M): 16 to 32 µg/mL (≈ 21.5 to 43 µM)
MIC (N. gonorrhoeae WHO K): > 64 µg/mL
MIC (N. gonorrhoeae WHO X): > 64 µg/mL
MIC (N. gonorrhoeae CDC-0197): > 64 µg/mL

O=C(NCCCN1CCN(C(=O)N[C@H](C(=O)N[C@H]2Cc3ccc(F)c(C(=O)O)c3OB2O)c2cc(F)c(O)c(O)c2Cl)C(=O)C1=O)c1ccnc(F)c1F [Example 299, (R)-3-((S)-2-(2-chloro-5-fluoro-3,4-dihydroxyphenyl)-2-(4-(3-(2,3-difluoroisonicotinamido)propyl)-2,3-dioxopiperazine-1-carboxamido)acetamido)-7-fluoro-2-hydroxy-3,4-dihydro-2H-benzo[e][1,2]oxaborinine-8-carboxylic acid]
MIC [1]: > 64 µg/mL
MIC (N. gonorrhoeae FA1090): 16 to 32 µg/mL (≈ 20.5 to 41 µM)
MIC (N. gonorrhoeae MS11): > 64 µg/mL
MIC (N. gonorrhoeae WHO G): > 64 µg/mL
MIC (N. gonorrhoeae WHO L): > 64 µg/mL
MIC (N. gonorrhoeae WHO M): > 64 µg/mL
MIC (N. gonorrhoeae WHO K): > 64 µg/mL
MIC (N. gonorrhoeae WHO X): > 64 µg/mL
MIC (N. gonorrhoeae CDC-0197): > 64 µg/mL

O=C(NCCCN1CCN(C(=O)N[C@H](C(=O)N[C@H]2Cc3ccc(F)c(C(=O)O)c3OB2O)c2cc(F)c(O)c(O)c2Cl)C(=O)C1=O)c1cccc(O)c1Cl [Example 302, (R)-3-((S)-2-(4-(3-(2-chloro-3-hydroxybenzamido)propyl)-2,3-dioxopiperazine-1-carboxamido)-2-(2-chloro-5-fluoro-3,4-dihydroxyphenyl)acetamido)-7-fluoro-2-hydroxy-3,4-dihydro-2H-benzo[e][1,2]oxaborinine-8-carboxylic acid]
MIC [1]: > 64 µg/mL
MIC (N. gonorrhoeae FA1090): > 64 µg/mL
MIC (N. gonorrhoeae MS11): > 64 µg/mL
MIC (N. gonorrhoeae WHO G): > 64 µg/mL
MIC (N. gonorrhoeae WHO L): > 64 µg/mL
MIC (N. gonorrhoeae WHO M): > 64 µg/mL
MIC (N. gonorrhoeae WHO K): > 64 µg/mL
MIC (N. gonorrhoeae WHO X): > 64 µg/mL
MIC (N. gonorrhoeae CDC-0197): > 64 µg/mL
